Reference: patent US10060907B2, “Redoxindicators” (priority 2014, dated 2018)
Like-named read-outs stand apart in the source and are kept apart here.

Tests used:
[1] = Solubility in water; type: physicochemical
[2] = Cyclic voltammetry (CV) studies of the redoxindicators; type: physicochemical; settings: vs Ag/AgCl, 0.9% NaCl at pH 7, phosphate buffer, Au working electrode, scan rate 100 mVs^−1
Experimental: The CVs of the compounds synthesized in example 6-7 were recorded vs. the Ag/AgCl reference electrode in a phosphate buffer pH 7 (Table 4).
E/mV vs Ag/AgCl, 0.9% NaCl at pH 7, phosphate buffer, Au working electrode, scan rate 100 mVs^−1

[3] = Evaluation of extinction coefficient under pseudo-first-order reaction conditions; type: physicochemical; settings: 535 nm, 50 mM phosphate buffer pH 7, from slope of ΔAbs vs initial NADH
Experimental: The following were mixed in a cuvette: 100 μL of 10 mM solution of 1-methyl-3-[(E)-2-(1,3,3-trimethyl-3H-indolium-2-yl)ethenyl]quinolinium iodide trifluoromethanesulfonate in distilled water, 900 μL of 50 mM phosphate buffer pH 7, 1-3 μL of 10 mM NADH in distilled water. Change in absorbance at 535 nm was recorded after 5 min, when no further color change could be measured (FIG. 3, 9).
This ε value is nine times greater than those of the reduced form of MTT (Czerlinski, G. H.; et al; Journal of Biochemical and Biophysical Methods 1988, 15, 241).

[4] = Evaluation of the reaction rates with NADH; settings: for Colour change of the solution treated with NADH: NADH (disodium salt); for Turnover rates with NADH compared with ascorbate: NADH vs ascorbate
Experimental: (§1) Two solutions of the redoxindicator 1-methyl-6-((E)-3-oxo-3-phenyl-propenyl)-quinolinium methosulfate (5.00 mg, 0.013 mmol) in 1.00 ml water were each treated with an excess of NADH (disodium salt) or sodium ascorbate, respectively. […] After a few minutes, a larger amount of an orange precipitate was obtained, probably the insoluble dihydrochinoline. […] Even after 16 h no precipitate was found.
(§2) Two solutions of the redoxindicators 1-methyl-3-[(E)-2-(1,3,3-trimethyl-3H-indolium-2-yl)ethenyl]quinolinium iodide trifluoromethanesulfonate (0.005 mmol) in 1.00 ml of 50 mM phosphate buffer pH 7 were each treated with 2 μL of 10 mM NADH (disodium salt) or sodium ascorbate solutions in distilled water, respectively. The absorbance at 535 nm was measured in relation to time (FIG. 3).

[5] = Fluorometric determination of NADH; settings: 20 μM indicator, 4 μM NADH, 10 mM PIPES pH 7, excitation at 535 nm
Experimental: The following were mixed in a cuvette: 2 μL of 10 mM solution of an indicator (1-methyl-3-[(E)-2-(1,3,3-trimethyl-3H-indolium-2-yl)ethenyl]quinolinium iodide trifluoromethanesulfonate) in distilled water, 1000 μL of 10 mM PIPES buffer pH 7, 0.5-4 μL of 1 mM NADH solution in distilled water. The mixture was incubated for 30 min at room temperature. Fluorescence (550-800 nm) was recorded using excitation at 535 nm. (FIG. 10, 11).

[6] = Reaction of an indicator with NADH, UV/Vis of the reduced form; type: physicochemical; settings: for UV/Vis reduced form, λmax after reduction with NADH: 50 mM phosphate buffer pH = 7; for UV-Vis λmax after reduction with NADH: water
Experimental: The following were mixed in a cuvette: 50 μL of 10 mM solution of an indicator (1-methyl-3-[(E)-2-(1,3,3-trimethyl-3H-indolium-2-yl)ethenyl]quinolinium iodide trifluoromethanesulfonate) in distilled water, 950 μL of 50 mM phosphate buffer pH 7, 2 μL of 10 mM NADH solution in distilled water. A UV/Vis spectrum (400-1000 nm) was recorded every 7.5 sec for a 1 min after addition of NADH (resolution 2 nm) (FIG. 1). No further color change could be measured after 52.5 sec.

[7] = Evaluation of the reaction rates with ascorbate; settings: sodium ascorbate
Experimental: as §1, §2

[8] = tested on: HEK-293 cells; test: Cell viability testing, confocal fluorescence microscopy; type: cell-based; settings: 20 μM
Experimental: Viable HEK-293 cells and 4% paraformaldehyde killed HEK-293 cells were incubated with 1-methyl-3-[(E)-2-(1,3,3-trimethyl-3H-indolium-2-yl)ethenyl]quinolinium iodide trifluoromethanesulfonate (20 μM) in 10 mM PBS pH 7 at 37 C. Confocal fluorescence microscope images were recorded at 611 nm using excitation at 561 nm. […] The resulting cells retained viability for at least 24 h.

[9] = tested on: glucose dehydrogenase 2 (GlucDH2); test: Determination of glucose with GlucDH2/NAD and an indicator; type: biochemical; settings: 0.5 mM indicator, NAD/GlucDH2, glucose 385 μM, 100 mM phosphate buffer pH 7
Experimental: The following were mixed in a cuvette: 500 μL of 1.0 mM solution of an indicator (1-methyl-6-[(E)-2-(1,3,3-trimethyl-3H-indolium-2-yl)vinyl]quinolinium iodide trifluoromethanesulfonate) in 100 mM phosphate buffer pH 7, 500 μL of glucose dehydrogenase 2 (GlucDH2) solution (in 100 mM phosphate buffer pH 7 containing 4.0 mM NAD^+) at a concentration of 491 U/ml, 40 μL of 10 mM solution of glucose in distilled water. A UV/Vis spectrum (300-1000 nm) was recorded every 1 min for a 10 min after addition of glucose (resolution 1 nm) (FIG. 4).

C[N+]1=C(/C=C/c2ccc(-c3ccc(/C=C/C4=[N+](C)c5ccccc5C4(C)C)c[n+]3C)[n+](C)c2)C(C)(C)c2ccccc21.O=S(=O)([O-])C(F)(F)F.O=S(=O)([O-])C(F)(F)F.[I-].[I-]
solubility [1]: ≥ 15 mM

C[N+]1=C(/C=C/c2ccc3c(ccc[n+]3C)c2)C(C)(C)c2ccccc21.O=S(=O)([O-])C(F)(F)F.[I-] [drawing 52]
Reduction potential [2]: −634 mV

CC[n+]1cc(/C=C/C2=[N+](C)c3ccccc3C2(C)C)cc2ccccc21
solubility [1]: ≥ 4 mM

C[N+]1=C(/C=C/c2cc3ccccc3[n+](C)c2)C(C)(C)c2ccccc21.O=S(=O)([O-])C(F)(F)F.[I-] [XXIV, 1-methyl-3-[(E)-2-(1,3,3-trimethyl-3H-indolium-2-yl)ethenyl]quinolinium iodide trifluoromethanesulfonate]
Extinction coefficient ε of the reduced form [3]: 69.3 mM⁻¹ cm⁻¹ | Colour change of the solution treated with NADH [4]: changed rapidly from nearly colorless to pink | Turnover rates with NADH compared with ascorbate [4]: much higher than with ascorbate | Fluorescence emission λmax after adding NADH [5]: 560 nm | solubility [1]: ≥ 10 mM | Time after addition of NADH after which no further color change could be measured ([6]; 0.5 mM indicator, 20 μM NADH, 50 mM phosphate buffer pH 7): 52.5 s | UV/Vis reduced form, λmax after reduction with NADH [6]: 535 nm | Colour change of the solution treated with ascorbate [7]: did not change color | Fluorescence intensity, viable vs dead HEK-293 cells [8]: much higher in viable cells than in dead cells | Fluorescence intensity in viable HEK-293 cells ([8]; 10 mM PBS pH 7, 37 C, 611 nm, excitation 561 nm): fluorescence intensity was enhanced | Cellular uptake in viable HEK-293 cell ([8]; confocal image): showed cellular uptake | Fluorescence intensity in paraformaldehyde killed HEK-293 cells ([8]; 4% paraformaldehyde killed cells, 10 mM PBS pH 7, 37 C): did not show enhancement in fluorescence intensity | Time for which treated cells retained viability ([8]; viable HEK-293 cells): at least 24 h

CCOc1cccc2c1nc1c(/C=C/C3=[N+](C)c4ccccc4C3(C)C)cccc1[n+]2C.[Cl-].[Cl-] [9-ethoxy-10-methyl-1-[(E)-2-(1,3,3-trimethyl-3H-indolium-2-yl)vinyl]phenazinium]
solubility [1]: ≥ 7 mM

C[N+]1=C(/C=C/c2cc3ccccc3[n+](C)c2)C(C)(C)c2ccccc21.O=S(=O)([O-])C(F)(F)F.[I-] [drawing 50]
Reduction potential [2]: −534 mV

C[N+]1=C(/C=C/c2ccc[n+](C)c2)C(C)(C)c2ccccc21
solubility [1]: ≥ 114 mM

C[N+]1=C(/C=C/c2ccc[n+](C)c2)C(C)(C)c2ccccc21.O=S(=O)([O-])C(F)(F)F.[I-]
Reduction potential [2]: −564 mV

CC[n+]1cc(/C=C/C2=[N+](C)c3ccccc3C2(C)C)cc2ccccc21.O=S(=O)([O-])C(F)(F)F.[I-]
Reduction potential [2]: −524 mV

C[N+]1=C(/C=C/c2ccc3c(c2)nc2ccccc2[n+]3C)C(C)(C)c2ccccc21.O=S(=O)([O-])C(F)(F)F.[I-]
UV-Vis λmax after reduction with NADH [6]: LC-MS m/z 379.3 (M^+) HRMS m/z 378.1970 ([M − H]^+) UV-Vis (water) after reduction with NADH: λmax 740 nm;

C[N+]1=C(/C=C/c2cccc3c2ncc[n+]3C)C(C)(C)c2ccccc21.O=S(=O)([O-])C(F)(F)F.[I-]
solubility [1]: ≥ 9 mM | UV-Vis λmax after reduction with NADH [6]: 535 nm

C[N+]1=C(/C=C/c2cccc3c2nc2ccccc2[n+]3C)C(C)(C)c2ccccc21.O=S(=O)([O-])C(F)(F)F.[I-]
solubility [1]: ≥ 4 mM

C[N+]1=C(/C=C/c2c[n+](C)cc3ccccc23)C(C)(C)c2ccccc21
solubility [1]: ≥ 25 mM

CC[n+]1cc(/C=C2\CCC[N+]3=C2C(C)(C)c2ccccc23)cc2ccccc21
solubility ([1]; Cl^− form): ≥ 0.3 mM

C[N+]1=C(/C=C/c2c[n+](C)cc3ccccc23)C(C)(C)c2ccccc21.O=S(=O)([O-])C(F)(F)F.[I-]
Reduction potential [2]: −424 mV

C[N+]1=C(/C=C/c2ccc3c(ccc[n+]3C)c2)C(C)(C)c2ccccc21.O=S(=O)([O-])C(F)(F)F.[I-] [drawing 35, 1-methyl-6-[(E)-2-(1,3,3-trimethyl-3H-indolium-2-yl)vinyl]quinolinium iodide trifluoromethanesulfonate]
Absorbance λmax after adding glucose [9]: 516 nm | solubility [1]: ≥ 15 mM | UV/Vis reduced form, λmax after reduction with NADH [6]: 517 nm

COS(=O)(=O)[O-].C[n+]1cccc2cc(/C=C/C(=O)c3ccccc3)ccc21 [MOPPQ, 1-Methyl-6-((E)-3-oxo-3-phenyl-propenyl)-quinolinium methosulfate]
Colour change of the solution treated with NADH [4]: changed rapidly from nearly colorless to orange | Turnover rates with NADH compared with ascorbate [4]: much higher than with ascorbate | Colour change of the solution treated with ascorbate [7]: showed only a pale orange color

CC[n+]1cc(/C=C/C2=[N+](C)c3ccccc3C2(C)C)c2ccccc2c1.O=S(=O)([O-])C(F)(F)F.[I-]
Reduction potential [2]: −454 mV
